Read-outs that look alike come from different tables or passages of the source. Marks after values point to notes of the source that are not given here.
Experiments:
[1] = system: EAE induced by MBP69-88/CFA immunization and pertussis toxin injection; assay type: in vivo, Lewis rats; details: for Median day of onset (all rats) / Mean day of onset +/− SEM (sick rats) / EAE incidence (%): p.o.; for Median day of onset (all rats): vehicle 9.0; for Mean day of onset +/− SEM (sick rats): vehicle 9.3 +/− 0.6; for EAE incidence (%): vehicle 100.0%
Human PKC mu = target: T1, Human PKC mu (Homo sapiens, UniProt Q15139); experiment: In vitro PKC inhibition, PKC mu; assay type: biochemical
T1 sequence (Q15139 1-912): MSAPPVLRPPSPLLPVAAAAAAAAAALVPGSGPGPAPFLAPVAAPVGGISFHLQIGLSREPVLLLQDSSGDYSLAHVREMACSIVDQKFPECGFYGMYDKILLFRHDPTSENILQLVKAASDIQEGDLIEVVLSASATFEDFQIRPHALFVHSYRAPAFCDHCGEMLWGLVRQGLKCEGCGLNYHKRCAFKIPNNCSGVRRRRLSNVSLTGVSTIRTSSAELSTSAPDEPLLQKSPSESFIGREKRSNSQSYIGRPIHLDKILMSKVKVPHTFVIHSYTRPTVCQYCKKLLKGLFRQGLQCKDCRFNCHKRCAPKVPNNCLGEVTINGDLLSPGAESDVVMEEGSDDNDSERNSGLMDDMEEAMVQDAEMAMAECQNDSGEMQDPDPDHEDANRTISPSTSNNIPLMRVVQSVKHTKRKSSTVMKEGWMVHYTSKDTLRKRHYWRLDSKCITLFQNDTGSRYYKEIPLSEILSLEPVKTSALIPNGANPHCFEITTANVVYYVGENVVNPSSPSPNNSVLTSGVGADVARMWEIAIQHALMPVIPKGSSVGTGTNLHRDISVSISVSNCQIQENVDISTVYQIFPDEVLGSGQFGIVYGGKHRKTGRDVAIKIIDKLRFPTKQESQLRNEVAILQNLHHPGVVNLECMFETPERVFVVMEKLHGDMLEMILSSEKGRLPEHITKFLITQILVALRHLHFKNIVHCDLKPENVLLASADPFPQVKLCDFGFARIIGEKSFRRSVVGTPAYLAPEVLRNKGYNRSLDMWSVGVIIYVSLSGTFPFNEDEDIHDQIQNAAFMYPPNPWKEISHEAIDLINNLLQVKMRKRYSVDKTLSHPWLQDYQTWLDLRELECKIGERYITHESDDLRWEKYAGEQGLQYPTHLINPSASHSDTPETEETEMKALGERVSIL
Excerpt: (§1) The methods for these determinations have been described (Grant, et al. 2010, Eur J Pharmacol. 627:16-25).

Human PKC betaI = Human PKC betaI (Homo sapiens, UniProt P05771); experiment: In vitro PKC inhibition, PKC betaI; assay type: biochemical
Human PKC iota = target: T2, Human PKC iota (Homo sapiens, UniProt P41743); experiment: In vitro PKC inhibition, PKC iota; assay type: biochemical
T2 sequence (P41743 1-596): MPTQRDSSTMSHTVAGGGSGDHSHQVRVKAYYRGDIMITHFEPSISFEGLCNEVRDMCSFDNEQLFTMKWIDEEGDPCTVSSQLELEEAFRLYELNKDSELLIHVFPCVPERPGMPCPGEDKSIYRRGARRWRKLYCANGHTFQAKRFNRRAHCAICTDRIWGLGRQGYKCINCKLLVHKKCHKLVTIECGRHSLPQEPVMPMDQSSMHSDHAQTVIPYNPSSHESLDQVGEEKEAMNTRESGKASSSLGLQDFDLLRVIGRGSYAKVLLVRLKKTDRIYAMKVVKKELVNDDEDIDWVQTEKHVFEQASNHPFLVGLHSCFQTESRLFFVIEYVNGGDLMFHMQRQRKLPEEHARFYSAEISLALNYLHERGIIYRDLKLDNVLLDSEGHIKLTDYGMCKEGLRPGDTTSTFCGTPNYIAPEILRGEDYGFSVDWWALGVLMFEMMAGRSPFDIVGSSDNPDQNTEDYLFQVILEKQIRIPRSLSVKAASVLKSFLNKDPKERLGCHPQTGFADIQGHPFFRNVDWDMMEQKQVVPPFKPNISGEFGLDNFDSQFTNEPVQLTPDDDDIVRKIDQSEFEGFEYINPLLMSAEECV
Excerpt: as §1

Human PKC gamma = Human PKC gamma (Homo sapiens, UniProt P05129); experiment: In vitro PKC inhibition, PKC gamma; assay type: biochemical
Excerpt: as §1

[2] = Separate pharmacokinetics experiments in mice; assay type: in vivo; details: 60 mg/kg dose, oral
Human PKC delta = Human PKC delta (Homo sapiens, UniProt Q05655); experiment: In vitro PKC inhibition, PKC delta; assay type: biochemical
Excerpt: as §1

pSHP2 (PKCβ cell assay) = experiment: pSHP2 (PKCβ cell assay); assay type: cell-based
Excerpt: as §1

Human PKC betaII = Human PKC betaII (Homo sapiens, UniProt P05771); experiment: In vitro PKC inhibition, PKC betaII; assay type: biochemical
[3] = 15 and 30 mg/kg BID, compared to the vehicle control group

Chain of Human PKC delta (Q05655 whole entry): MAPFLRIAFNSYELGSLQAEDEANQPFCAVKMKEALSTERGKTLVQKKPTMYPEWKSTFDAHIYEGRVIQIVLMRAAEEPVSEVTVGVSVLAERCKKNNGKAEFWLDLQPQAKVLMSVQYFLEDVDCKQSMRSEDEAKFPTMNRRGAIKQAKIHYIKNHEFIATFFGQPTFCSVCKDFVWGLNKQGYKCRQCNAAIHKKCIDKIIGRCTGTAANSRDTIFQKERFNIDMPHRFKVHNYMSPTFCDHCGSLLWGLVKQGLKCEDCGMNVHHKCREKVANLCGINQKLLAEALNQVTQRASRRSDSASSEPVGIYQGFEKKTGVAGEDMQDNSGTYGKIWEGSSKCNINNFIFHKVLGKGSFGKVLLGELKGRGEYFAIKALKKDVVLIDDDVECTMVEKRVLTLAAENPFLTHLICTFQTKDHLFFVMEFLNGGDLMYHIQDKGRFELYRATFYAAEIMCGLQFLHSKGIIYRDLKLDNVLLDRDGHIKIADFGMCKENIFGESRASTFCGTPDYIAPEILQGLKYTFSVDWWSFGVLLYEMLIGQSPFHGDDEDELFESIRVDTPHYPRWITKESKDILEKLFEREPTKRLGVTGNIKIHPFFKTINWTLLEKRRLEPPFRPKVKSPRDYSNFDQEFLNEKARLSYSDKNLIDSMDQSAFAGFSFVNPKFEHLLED
Chain of Human PKC betaII (P05771 1-673 isoform P05771-2): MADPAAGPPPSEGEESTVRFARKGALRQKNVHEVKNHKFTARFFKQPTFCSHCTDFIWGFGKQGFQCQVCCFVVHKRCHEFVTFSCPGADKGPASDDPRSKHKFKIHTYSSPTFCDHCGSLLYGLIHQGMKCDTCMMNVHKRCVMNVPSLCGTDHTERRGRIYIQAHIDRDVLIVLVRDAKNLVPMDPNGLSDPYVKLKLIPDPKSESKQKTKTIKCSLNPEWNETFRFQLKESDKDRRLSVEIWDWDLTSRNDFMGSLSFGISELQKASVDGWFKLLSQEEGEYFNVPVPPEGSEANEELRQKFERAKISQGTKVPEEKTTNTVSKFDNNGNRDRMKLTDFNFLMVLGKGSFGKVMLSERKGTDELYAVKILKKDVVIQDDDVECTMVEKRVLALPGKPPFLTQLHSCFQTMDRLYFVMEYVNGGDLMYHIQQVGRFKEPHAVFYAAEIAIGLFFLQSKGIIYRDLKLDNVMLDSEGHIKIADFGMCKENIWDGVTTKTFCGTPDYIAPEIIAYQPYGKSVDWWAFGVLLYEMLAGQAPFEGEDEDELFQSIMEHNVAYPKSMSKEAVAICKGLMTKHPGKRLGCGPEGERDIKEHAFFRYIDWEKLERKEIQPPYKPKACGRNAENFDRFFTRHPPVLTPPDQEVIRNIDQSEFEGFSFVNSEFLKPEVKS
Chain of Human PKC betaI (P05771 whole entry): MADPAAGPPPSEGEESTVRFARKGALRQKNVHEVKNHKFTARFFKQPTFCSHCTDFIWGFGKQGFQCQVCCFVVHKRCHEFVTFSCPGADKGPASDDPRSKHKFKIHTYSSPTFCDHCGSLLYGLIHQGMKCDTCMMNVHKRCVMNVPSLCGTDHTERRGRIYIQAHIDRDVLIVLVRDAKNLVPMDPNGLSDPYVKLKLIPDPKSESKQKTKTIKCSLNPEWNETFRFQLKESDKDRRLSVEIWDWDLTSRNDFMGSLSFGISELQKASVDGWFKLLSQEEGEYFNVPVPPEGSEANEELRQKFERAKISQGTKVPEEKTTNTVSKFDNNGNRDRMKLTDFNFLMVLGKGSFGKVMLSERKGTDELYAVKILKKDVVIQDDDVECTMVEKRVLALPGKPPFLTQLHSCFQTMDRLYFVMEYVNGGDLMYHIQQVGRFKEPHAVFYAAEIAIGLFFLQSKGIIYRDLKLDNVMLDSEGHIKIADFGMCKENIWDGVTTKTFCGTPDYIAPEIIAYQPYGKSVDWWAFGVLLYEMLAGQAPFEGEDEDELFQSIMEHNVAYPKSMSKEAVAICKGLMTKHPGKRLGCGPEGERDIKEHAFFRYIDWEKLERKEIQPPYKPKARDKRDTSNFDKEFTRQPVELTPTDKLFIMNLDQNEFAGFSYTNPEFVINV

Q: With `CCCCCCCCc1ccc(CCC(N)(CO)CO)cc1` [FTY720, fingolimod, reference compound] as the compound, how does the “Median day of onset (all rats)” value ([1]; 0.5 mg/kg, QD) read?
A: 8.0 days

Q: And the “Mean day of onset +/− SEM (sick rats)” value ([1]; 0.5 mg/kg, QD)?
A: 8.0 ± 0.3 days

Q: Which IC50 (Human PKC mu) does the source give for `Cc1ncc(F)c(Nc2n[nH]c3c2CN(C(=O)N2C[C@@H](C)N(CC4CCOCC4)C[C@@H]2C)C3(C)C)n1` [Compound A, 5-{[(2S,5R)-2,5-Dimethyl-4-(tetrahydro-2H-pyran-4-ylmethyl)piperazin-1-yl]carbonyl}-N-(5-fluoro-2-methylpyrimidin-4-yl)-6,6-dimethyl-1,4,5,6-tetrahydropyrrolo[3,4-c]pyrazol-3-amine] here?
A: 314 nM

Q: And the IC50 (Human PKC betaI)?
A: 8.1 nM

Q: And the IC50 (Human PKC iota)?
A: > 1000 nM

Q: And the IC50 (Human PKC gamma)?
A: 57.5 nM

Q: What about the exposure in mice [2] of the same compound?
A: unexpectedly low and insufficient exposure

Q: What about the “Median day of onset (all rats)” value ([1]; 7.5 mg/kg, BID) of the same compound?
A: 9.0 days

Q: And the “Mean day of onset +/− SEM (sick rats)” value ([1]; 7.5 mg/kg, BID)?
A: 9.0 ± 0.5 days

Q: What about the “EAE incidence (%)” value ([1]; 7.5 mg/kg, BID) of the same compound?
A: 100.0%

Q: And the “Median day of onset (all rats)” value ([1]; 15 mg/kg, BID)?
A: 8.0 days

Q: And the “Mean day of onset +/− SEM (sick rats)” value ([1]; 15 mg/kg, BID)?
A: 8.5 ± 0.4 days

Q: What about the “EAE incidence (%)” value ([1]; 15 mg/kg, BID) of the same compound?
A: 100.0%

Q: What about the “Mean day of onset +/− SEM (sick rats)” value ([1]; 30 mg/kg, BID) of the same compound?
A: 9.0 ± 0.9 days

Q: What about the “EAE incidence (%)” value ([1]; 30 mg/kg, BID, p < 0.05 vs. vehicle) of the same compound?
A: 50.0%*

Q: What about the “clinical score (EAE)” value ([1]; 7.5, 15 and 30 mg/kg BID) of the same compound?
A: dose-dependent decrease

Q: What about the “end severity (FIG. 5)” value [1, 3] of the same compound?
A: significantly reduced

Q: And the “maximum EAE severity (FIG. 5)” value [1, 3]?
A: significantly reduced

Q: And the “EAE incidence (in words)” value ([1]; highest dose (30 mg/kg BID))?
A: significantly reduced

Q: What about the “efficacy compared with fingolimod” value ([1]; highest dose employed (30 mg/kg BID) vs. FTY720 0.5 mg/kg QD) of the same compound?
A: appeared superior to fingolimod

Q: What about the IC50 (Human PKC delta) of the same compound?
A: > 1000 nM

Q: What about the “inhibition of PKC delta (in words)” value (Human PKC delta) of the same compound?
A: does not significantly inhibit

Q: What about the IC50 (pSHP2 (PKCβ cell assay)) of the same compound?
A: 9.8 nM

Q: What about the IC50 (Human PKC betaII) of the same compound?
A: 7.6 nM

Q: What about the Ki (Human PKC betaII; recombinant PKC beta (betaII in Table 1)) of the same compound?
A: 5.3 nM

— US9980965B2, “Treatment of autoimmune disease” (MingSight Pharmaceuticals, Inc., priority 2014, dated 2018)
